From patent US10590140B2, “Tetrahydropyrimidodiazepine and dihydropyridodiazepine compounds for treating pain and pain related conditions” (ESTEVE PHARMACEUTICALS, S.A., priority 2016, dated 2020)

Each compound was assayed against human α2δ-1 subunit of Cav2.2 calcium channel (Homo sapiens (Human), UniProt P54289) (assay: Binding assay to human α2δ-1 subunit of Cav2.2 calcium channel ([3H]-Gabapentin)). Conditions: binding to α2δ-1, [3H]-Gabapentin; read-out: Ki (nM) α2δ-1.
Description: Binding Assay to Human α2δ-1 Subunit of Cav2.2 Calcium Channel.
NSB (non specific binding) was measured by adding 10 μM pregabalin. After 60 min incubation at 27° C., binding reaction was terminated by filtering through Multiscreen GF/C (Millipore) presoaked in 0.5% polyethyleneimine in Vacuum Manifold Station, followed by 3 washes with ice-cold filtration buffer containing 50 mM Tris-HCl, pH 7.4.
Filter plates were dried at 60° C. for 1 hour and 30 μl of scintillation cocktail were added to each well before radioactivity reading.

Sequence of human α2δ-1 subunit of Cav2.2 calcium channel (P54289 25-1103): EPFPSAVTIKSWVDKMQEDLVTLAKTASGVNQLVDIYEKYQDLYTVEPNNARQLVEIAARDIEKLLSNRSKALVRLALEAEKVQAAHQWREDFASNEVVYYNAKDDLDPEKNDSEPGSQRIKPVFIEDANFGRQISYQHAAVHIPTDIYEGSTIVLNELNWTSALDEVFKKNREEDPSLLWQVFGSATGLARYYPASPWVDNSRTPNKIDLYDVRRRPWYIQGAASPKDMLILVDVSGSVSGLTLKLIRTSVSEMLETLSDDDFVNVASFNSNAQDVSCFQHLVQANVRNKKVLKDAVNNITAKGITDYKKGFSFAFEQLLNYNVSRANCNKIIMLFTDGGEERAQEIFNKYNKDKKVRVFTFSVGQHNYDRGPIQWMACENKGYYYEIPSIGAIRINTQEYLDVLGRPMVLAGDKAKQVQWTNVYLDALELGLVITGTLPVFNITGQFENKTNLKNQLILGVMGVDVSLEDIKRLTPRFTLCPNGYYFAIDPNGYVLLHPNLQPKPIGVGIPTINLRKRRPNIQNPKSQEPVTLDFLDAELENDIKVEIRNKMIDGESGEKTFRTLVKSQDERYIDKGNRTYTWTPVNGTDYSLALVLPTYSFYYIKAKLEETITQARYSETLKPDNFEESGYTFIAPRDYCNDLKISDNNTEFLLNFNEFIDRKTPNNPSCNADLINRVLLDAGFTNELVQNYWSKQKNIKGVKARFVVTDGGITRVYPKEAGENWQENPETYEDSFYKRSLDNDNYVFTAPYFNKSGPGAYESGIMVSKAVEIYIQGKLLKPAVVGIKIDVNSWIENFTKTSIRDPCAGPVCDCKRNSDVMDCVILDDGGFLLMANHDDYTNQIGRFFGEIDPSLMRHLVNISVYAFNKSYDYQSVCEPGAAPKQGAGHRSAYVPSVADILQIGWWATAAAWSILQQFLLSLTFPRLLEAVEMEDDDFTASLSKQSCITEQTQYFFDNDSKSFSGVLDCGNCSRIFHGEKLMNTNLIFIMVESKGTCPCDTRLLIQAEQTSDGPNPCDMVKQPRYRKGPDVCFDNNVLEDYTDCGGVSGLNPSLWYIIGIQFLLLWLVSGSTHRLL

Row | Compound | Ki [nM]
1 | CSc1ncc2c(n1)N(C)CCN(c1cccc(-c3nnc(C)o3)c1)C2=O [Example 29, 9-methyl-6-(3-(5-methyl-1,3,4-oxadiazol-2-yl)phenyl)-2-(methylthio)-6,7,8,9-tetrahydro-5H-pyrimido[4,5-e][1,4]diazepin-5-one] | > 3000
2 | CCN1CCN(c2cccc(-c3nnc(C)o3)c2)C(=O)c2cnc(SC)nc21 [Example 30, 9-ethyl-6-(3-(5-methyl-1,3,4-oxadiazol-2-yl)phenyl)-2-(methylthio)-6,7,8,9-tetrahydro-5H-pyrimido[4,5-e][1,4]diazepin-5-one] | > 3000
3 | CSc1ncc2c(n1)N(C)CCN(c1cccc(-c3noc(C)n3)c1)C2=O [Example 31, 9-methyl-6-(3-(5-methyl-1,2,4-oxadiazol-3-yl)phenyl)-2-(methylthio)-6,7,8,9-tetrahydro-5H-pyrimido[4,5-e][1,4]diazepin-5-one] | > 3000
4 | COc1cccc(N2CCN(C)c3nc(SC)ncc3C2=O)c1 [Example 32, 6-(3-methoxyphenyl)-9-methyl-2-(methylthio)-6,7,8,9-tetrahydro-5H-pyrimido[4,5-e][1,4]diazepin-5-one] | > 3000
5 | CSc1ncc2c(n1)N(C)CCN(c1cccc(C#N)c1)C2=O [Example 33, 3-(9-methyl-2-(methylthio)-5-oxo-5,7,8,9-tetrahydro-6H-pyrimido[4,5-e][1,4]diazepin-6-yl)benzonitrile] | > 3000
6 | CSc1ncc2c(n1)N(C)CCN(c1cccc(O[Si](C)(C)C(C)(C)C)c1)C2=O [Example 34, 6-(3-((tert-butyldimethyl-silyl)oxy)phenyl)-9-methyl-2-(methylthio)-6,7,8,9-tetrahydro-5H-pyrimido[4,5-e][1,4]diazepin-5-one] | > 3000
7 | CSc1ncc2c(n1)N(C)CCN(c1cccc(Br)c1)C2=O [Example 35, 6-(3-bromophenyl)-9-methyl-2-(methylthio)-6,7,8,9-tetrahydro-5H-pyrimido[4,5-e][1,4]diazepin-5-one] | > 3000
8 | CSc1ncc2c(n1)N(C)CCN(c1cccc(CCO)c1)C2=O [Example 36, 6-(3-(2-hydroxyethyl)phenyl)-9-methyl-2-(methylthio)-6,7,8,9-tetrahydro-5H-pyrimido[4,5-e][1,4]diazepin-5-one] | > 3000
9 | COc1ccc(N2CCN(C)c3nc(SC)ncc3C2=O)cc1 [Example 37, 6-(4-methoxyphenyl)-9-methyl-2-(methylthio)-6,7,8,9-tetrahydro-5H-pyrimido[4,5-e][1,4]diazepin-5-one] | > 3000
10 | CSc1ncc2c(n1)N(C)CCN(c1ccc(O[Si](C)(C)C(C)(C)C)cc1)C2=O [Example 38, 6-(4-((tert-butyldimethyl-silyl)oxy)phenyl)-9-methyl-2-(methylthio)-6,7,8,9-tetrahydro-5H-pyrimido[4,5-e][1,4]diazepin-5-one] | > 3000
11 | CSc1ncc2c(n1)N(C)CCN(c1cccc(-n3cc(CN(C)C(=O)OC(C)(C)C)nn3)c1)C2=O [Example 39, tert-butyl methyl((1-(3-(9-methyl-2-(methylthio)-5-oxo-5,7,8,9-tetrahydro-6H-pyrimido[4,5-e][1,4]diazepin-6-yl)phenyl)-1H-1,2,3-triazol-4-yl)methyl) carbamate] | > 3000
12 | CSc1ncc2c(n1)N(C)CCN(c1cccc(-n3cc(CNC(=O)OC(C)(C)C)nn3)c1)C2=O [Example 40, tert-butyl ((1-(3-(9-methyl-2-(methylthio)-5-oxo-5,7,8,9-tetrahydro-6H-pyrimido[4,5-e][1,4]diazepin-6-yl)phenyl)-1H-1,2,3-triazol-4-yl)methyl) carbamate] | > 3000
13 | CSc1ncc2c(n1)N(C)CCN(c1cccc(-n3cc(CN(Cc4ccccc4)C(=O)OC(C)(C)C)nn3)c1)C2=O [Example 41, tert-butyl benzyl((1-(3 (9-methyl-2-(methylthio)-5-oxo-5,7,8,9-tetrahydro-6H pyrimido[4,5-e][1,4]diazepin-6-yl)phenyl)-1H-1,2,3-triazol-4-yl)methyl) carbamate] | > 3000
14 | CCOC(OCC)c1cn(-c2cccc(N3CCN(C)c4nc(SC)ncc4C3=O)c2)nn1 [Example 42, 6-(3-(4-(diethoxymethyl)-1H-1,2,3-triazol-1-yl)phenyl)-9-methyl-2-(methylthio)-6,7,8,9-tetrahydro-5H-pyrimido[4,5-e][1,4]diazepin-5-one] | > 3000

Further lines, results first:

Row | Ki [nM] | Compound
15 | > 3000 | CSc1ncc2c(n1)N(C)CCN(c1cccc(OCCCN(C)C(=O)OC(C)(C)C)c1)C2=O [Example 20, tert-butyl methyl(3-(3-(9-methyl-2-(methylthio)-5-oxo-5,7,8,9-tetrahydro-6H-pyrimido[4,5-e][1,4]diazepin-6-yl)phenoxy)propyl) carbamate]
16 | > 3000 | CSc1ncc2c(n1)N(C)CCN(c1cccc(OCCCN(Cc3ccccc3)C(=O)OC(C)(C)C)c1)C2=O [Example 21, tert-butyl benzyl(3-(3-(9-methyl-2-(methylthio)-5-oxo-5,7,8,9-tetrahydro-6H-pyrimido[4,5-e][1,4]diazepin-6-yl)phenoxy)propyl) carbamate]
17 | > 3000 | CSc1ncc2c(n1)N(C)CCN(c1cccc(OCCN(C)C(=O)OC(C)(C)C)c1)C2=O [Example 22, tert-butyl methyl(2-(3-(9-methyl-2-(methylthio)-5-oxo-5,7,8,9-tetrahydro-6H-pyrimido[4,5-e][1,4]diazepin-6-yl)phenoxy)ethyl) carbamate]
18 | > 3000 | CSc1ncc2c(n1)N(C)CCN(c1cccc(CCCN(C)C(=O)OC(C)(C)C)c1)C2=O [Example 23, tert-butyl methyl(3-(3-(9-methyl-2-(methylthio)-5-oxo-5,7,8,9-tetrahydro-6H-pyrimido[4,5-e][1,4]diazepin-6-yl)phenyl)propyl) carbamate]
19 | > 3000 | CSc1ncc2c(n1)N(C)CCN(c1cccc(CCN(C)C(=O)OC(C)(C)C)c1)C2=O [Example 24, tert-butyl methyl(3-(9-methyl-2-(methylthio)-5-oxo-5,7,8,9-tetrahydro-6H-pyrimido[4,5-e][1,4]diazepin-6-yl)phenethyl) carbamate]
20 | > 3000 | CSc1ncc2c(n1)N(C)CCN(c1cccc(C(C)(C)CN(C)C(=O)OC(C)(C)C)c1)C2=O [Example 25, tert-butyl methyl(2-methyl-2-(3-(9-methyl-2-(methylthio)-5-oxo-5,7,8,9-tetrahydro-6H-pyrimido[4,5-e][1,4]diazepin-6-yl)phenyl)propyl) carbamate]
21 | > 3000 | CSc1ncc2c(n1)N(C)CCN(c1cccc(CN(C)C(=O)OC(C)(C)C)c1)C2=O [Example 26, tert-butyl methyl(3-(9-methyl-2-(methylthio)-5-oxo-5,7,8,9-tetrahydro-6H-pyrimido[4,5-e][1,4]diazepin-6-yl)benzyl) carbamate]
22 | > 3000 | CSc1ncc2c(n1)N(C)CCN(c1cccc(OC3CCN(C(=O)OC(C)(C)C)C3)c1)C2=O (centres unmarked) [Example 27, tert-butyl 3-(3-(9-methyl-2-(methylthio)-5-oxo-5,7,8,9-tetrahydro-6H-pyrimido[4,5-e][1,4]diazepin-6-yl)phenoxy) pyrrolidine-1-carboxylate]
23 | > 3000 | CSc1ncc2c(n1)N(C)CCN(c1cccc(COC3(c4ccccc4)CCN(C(=O)OC(C)(C)C)CC3)c1)C2=O [Example 28, tert-butyl 4-((3-(9-methyl-2-(methylthio)-5-oxo-5,7,8,9-tetrahydro-6H-pyrimido[4,5-e][1,4]diazepin-6-yl)benzyl)oxy)-4-phenylpiperidine-1-carboxylate]
